Experimental data as given in patent US20080085264A1, “METHODS FOR ENHANCING STEM CELL ENGRAFTMENT DURING TRANSPLANTATION” (priority 2003, published 2008).

Assays:
C57BL/6 mice [1] = experiment: G-CSF induced mobilization of HSC/HPC in C57BL/6 mice (progenitor cell assays of peripheral blood); format: in vivo, mouse; conditions: for effect of scrambled peptides on mobilization: C57BL/6, data not shown
Experimental: (§1) Mobilization was achieved by treating mice with 2.5 μg (micrograms) G-CSF/mouse 2×/day s.c. for 2 days (Broxmeyer H E, et al. J Exp Med. 1999; 189:1987-1992). Mice simultaneously treated with a specific CD26 inhibitor also underwent treatment with either 5 μmol Diprotin A/mouse 2×/day s.c. for 2 days or 5 μmol Val-Pyr/mouse 2×/day s.c. for 2 days. Diprotin A was obtained commercially (Peptides International, Louisville, Ky.) and Val-Pyr was obtained as a gift from Nicolai Wagtmann (Novo Nordisk, Denmark). After either G-CSF or G-CSF plus CD26 inhibitor treatment peripheral blood cells were collected and total cellular nuclearity was measured and progenitor cell assays were performed using total peripheral blood cells.
(§2) One-hundred thousand mouse G-CSF mobilized peripheral blood cells were plated in triplicate for colony formation by CFU-GM, BFU-E, and CFU-GEMM and scored at 7 days incubation as previously described (Cooper S, Broxmeyer H E. Measurement of interleukin-3 and other hematopoietic growth factors, such as GM-CSF, G-CSF, M-CSF, erkythropoietin and the potent co-stimulating cytokines steel factor and FLt-3 ligand. In: Coligan J E K A, Margulies D H, Shevach E M, Strober E, Coico R, ed. Current protocols in immunology. New York: John Wiley & Sons; 1996:6.4.1-6.4.12). Cells were plated for colony formation in 1% methylcellulose culture medium containing 30% FBS, 1 U/ml recombinant(r) human Epo, 0.1 mM Hemin, 5% Pokeweed Mitogen Spleen Conditioned Media (PWMSCM), and 50 ng/ml rmouse Steel Factor (=Stem Cell Factor, SCF).

BoyJ recipient mice [2] = experiment: Short-term homing of donor Sca-1+lin- cells to recipient bone marrow; format: in vivo, mouse
Experimental: Control C57BL/6 (CD45.2^+), CD26 inhibitor treated C57BL/6 (CD45.2^+), or CD26^−/− (CD45.2^+) sorted Sca-1^+lin^− or LD donor BM cells were transplanted by tail-vein injection into lethally irradiated (1100 cGy split dose) congenic BoyJ (CD45.1^+) female recipient mice (Haneline L S, et al. Blood. 1999; 94:1-8.) Contribution of Sca^+lin^− donor cells in the context of Sca-1^+lin^− recipient cells was calculated by flow cytometric analysis of cells found in the recipient mouse BM by measuring CD45.1+ and CD45.2^+ on Sca-1^+lin^− LD cells isolated from the recipient mice 24 hours post transplant. […] Comparisons between treatment groups were made using a two-tailed Student's t-test and data was plotted as mean (M)±standard error of the mean (SEM).

DBA/2 mice [3] = experiment: G-CSF induced mobilization of HSC/HPC in DBA/2 mice (progenitor cell assays of peripheral blood); format: in vivo, mouse
Experimental: as §1, §2

DBA/2 mice [4] = experiment: as above; format: in vivo, mouse; conditions: without G-CSF
C57BL/6 mice [5] = experiment: G-CSF induced mobilization of HSC/HPC in C57BL/6 mice (progenitor cell assays of peripheral blood); format: in vivo; conditions: 5 μmol/mouse 2×/day s.c. alone, without G-CSF
BoyJ irradiated mice = experiment: Competitive repopulation assay; format: in vivo, mouse; conditions: six months post transplant, 5×10^5 or 2.5×10^5 donor cells vs 5×10^5 competitor BoyJ cells
Text: Donor LDBM cells (5×10^5) from representative mice from each test group were transplanted into lethally irradiated BoyJ mice (expressing CD45.1) Quantitative contribution to chimerism was obtained 2-6 months post-transplantation in the same manner described for long-term engraftment assays.
Eight week old female recipient mice were lethally irradiated (1100 cGy split dose) prior to transplantation as previously described (Haneline L S, et al. Blood. 1999; 94:1-8). Limiting dilutions of donor LD BM cells (5×10^5, 2.5×10^5, 1.25×10^5, and 0.625×10^5 cells) from control C57Bl/6 mice, CD26-inhibitor treated LD BM cells, or untreated LD BM cells from CD26^−/− mice (all expressing CD45.2) are co-transplanted with a constant number (5×10^5) of pooled competitive BM cells from congenic BoyJ mice (expressing CD45.1), into BoyJ irradiated mice. To determine quantitatively the relative cell contribution to chimerism of each test cell population tail-vein blood samples were obtained post-transplantation each month for three months and CD45.1 and CD45.2 was measured by flow-cytometry. Cells were divided into CD26 inhibitor (either Diprotin A or Val-Pyr) treated or untreated groups obtained from normal C57BL/6 mice and untreated cells obtained from CD26^−/− mice. […]

BoyJ recipient mice [6] = experiment: Non-competitive long-term engraftment; format: in vivo, mouse; conditions: six months post transplant, P<0.05, n=5
Experimental: Control C57BL/6 (CD45.2^+) or CD26 inhibitor treated C57BL/6 (CD45.2^+) LD donor BM cells were transplanted by tail-vein injection into lethally irradiated (1100 cGy split dose) congenic BoyJ (CD45.1^+) female recipient mice (Haneline L S, et al. Blood. 1999; 94:1-8). Contribution of donor cells was obtained by measuring the number of donor and residual recipient lymphocytes in the peripheral blood. The % donor contribution was calculated by flow cytometric analysis of peripheral blood lymphocytes found in the recipient mouse peripheral blood by measuring CD45.1^+ and CD45.2^+ on cells isolated from the recipient mice 1-6 months post transplant. No less than five mice from each recipient group were analyzed, each one having received a transplant of 5×10^5 pooled LD donor BM cells. Comparisons between treatment groups were made using a two-tailed Student's t-test and data was plotted as mean (M)±standard error of the mean (SEM).

CD26-/- mice = experiment: G-CSF induced mobilization of progenitors in CD26-/- mice; format: in vivo, mouse; conditions: CD26-/- mice on C57Bl/6 background
Experimental: as §1
as §2, with “Cells were plated for colony formation in 1% methylcellulose culture medium containing 30% FBS, 1 U/ml recombinant(r) human Epo, 0.1 mM Hemin, 5% Pokeweed Mitogen Spleen Conditioned Media (PWMSCM), and 50 ng/ml rmouse Steel Factor (=Stem Cell Factor, SCF).” left out

[7] = inhibitor treatment during G-CSF mobilization
[8] = inhibitor 5 μmol/mouse 2×/day s.c. during G-CSF mobilization, C57BL/6
[9] = 2.5 μg G-CSF/mouse 2×/day s.c., C57BL/6

With Pro-Ile-Ile the “effect of scrambled peptides on mobilization” value (C57BL/6 mice [1]) was “no effect”.

With c1cc(CN2CCCNCCNCCCNCC2)ccc1CN1CCCNCCNCCCNCC1 [AMD3100] the “effect on the increase in homing efficiency generated by inhibition or loss of CD26” value (BoyJ recipient mice [2]; 10×10^6 LDBM donor cells treated with AMD3100 for 15 minutes prior to transplantation) was “reversed the increase in homing efficiency” and the “homing efficiency compared to control LDBM cells” value (BoyJ recipient mice [2]; AMD3100 treatment alone, no CD26 inhibitor) was “reduction in homing efficiency”.

In the case of Ile-Ile-Pro, the “effect of scrambled peptides on mobilization” value (C57BL/6 mice [1]) is reported as “no effect”.

In the case of CC(C)[C@H](N)C(=O)N1CCCC1 [Val-Pyr, Valine-Pyrrolidide], the “reduction in BFU-E compared to G-CSF alone” value (DBA/2 mice [3]; [7]) is reported as 49%, the “reduction in CFU-GEMM compared to G-CSF alone” value (DBA/2 mice [3]; [7]) is reported as 56% and the “reduction in CFU-GM compared to G-CSF alone” value (DBA/2 mice [3]; [7]) is reported as 52%. The “effect on the mobilization of progenitors, inhibitor alone” value (DBA/2 mice [4]) was “little or no effect”, the “reduction in BFU-E compared to G-CSF alone” value (C57BL/6 mice [1]; [8]) was 22% and the “reduction in CFU-GEMM compared to G-CSF alone” value (C57BL/6 mice [1]; [8]) was 62%. The “reduction in CFU-GM compared to G-CSF alone” value (C57BL/6 mice [1]; [8]) was 55%, the “effect on the mobilization of progenitors, inhibitor alone” value (C57BL/6 mice [5]) was “little or no effect” and the “short-term homing of donor cells” value (BoyJ recipient mice [2]; donor LDBM unit treated prior to transplant, P<0.01, n=6) was “significant increase in short-term homing”. For the same molecule, the “donor contribution to chimerism” value (BoyJ irradiated mice) was “increased donor contribution to chimerism” and the “donor cell contribution to the formation of peripheral blood leukocytes” value (BoyJ recipient mice [6]) was “Increased donor cell contribution”.

B1: G-CSF: cytokine used to induce mobilization of HSC/HPC (protein, UniProt P09919 31-207, looked up)
Granulocyte …: TPLGPASSLPQSFLLKCLEQVRKIQGDGAALQEKLVSECATYKLCHPEELVLLGHSLGIPWAPLSSCPSQALQLAGCLSQLHSGLFLYQGLLQALEGISPELGPTLDTLQLDVADFATTIWQQMEELGMAPALQPTQGAMPAFASAFQRRAGGVLVASHLQSFLEVSYRVLRHLAQP
For B1, the “BFU-E mobilized to peripheral blood” value (DBA/2 mice [3]; 2.5 μg G-CSF/mouse 2×/day s.c.) was 2219±141 BFU-E/ml, the “CFU-GEMM mobilized to peripheral blood” value (DBA/2 mice [3]; 2.5 μg G-CSF/mouse 2×/day s.c.) was 1186±163 CFU-GEMM/ml and the “CFU-GM mobilized to peripheral blood” value (DBA/2 mice [3]; 2.5 μg G-CSF/mouse 2×/day s.c.) was 8145±1038 CFU-GM/ml. For the same molecule, the “BFU-E mobilized to peripheral blood” value (C57BL/6 mice [1]; [9]) was 1027±107 BFU-E/ml, the “CFU-GEMM mobilized to peripheral blood” value (C57BL/6 mice [1]; [9]) was 442±35 CFU-GEMM/ml and the “CFU-GM mobilized to peripheral blood” value (C57BL/6 mice [1]; [9]) was 2348±249 CFU-GM/ml. For the same molecule, the “mobilization of progenitor cells by G-CSF” value (CD26-/- mice) was “low, but significant, mobilization”.
